Laboratory results from patent US20160002273A1, “THIENO[3,2-D]PYRIMIDINE-6-CARBOXAMIDES AND ANALOGUES AS SIRTUIN MODULATORS” (GLAXOSMITHKLINE LLC, priority 2013, published 2016).
Read-outs that look alike come from different tables or passages of the source.

Assays:
SIRT2 = target: T1, SIRT2 (Homo sapiens, UniProt Q8IXJ6); experiment: SIRT2 deacetylation of Trp 5-mer peptide, OAADPr mass spec assay; type: biochemical; design: His-SIRT2(1-389)
T1 sequence (Q8IXJ6 1-389): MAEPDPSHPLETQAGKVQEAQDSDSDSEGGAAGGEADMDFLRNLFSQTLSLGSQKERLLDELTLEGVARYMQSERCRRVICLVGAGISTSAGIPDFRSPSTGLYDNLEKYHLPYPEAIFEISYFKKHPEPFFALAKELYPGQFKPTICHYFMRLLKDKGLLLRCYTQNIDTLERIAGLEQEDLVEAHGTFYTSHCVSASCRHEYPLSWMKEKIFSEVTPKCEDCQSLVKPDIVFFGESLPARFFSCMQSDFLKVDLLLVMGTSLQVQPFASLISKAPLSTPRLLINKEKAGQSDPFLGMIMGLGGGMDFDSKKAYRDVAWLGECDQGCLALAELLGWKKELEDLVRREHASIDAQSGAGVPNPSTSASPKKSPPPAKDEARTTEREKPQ

SIRT1 = target: T2, SIRT1 (Homo sapiens, UniProt Q96EB6); experiment: SIRT1 deacetylation of Trp 5-mer peptide, OAADPr mass spec assay
T2 sequence (Q96EB6 1-747): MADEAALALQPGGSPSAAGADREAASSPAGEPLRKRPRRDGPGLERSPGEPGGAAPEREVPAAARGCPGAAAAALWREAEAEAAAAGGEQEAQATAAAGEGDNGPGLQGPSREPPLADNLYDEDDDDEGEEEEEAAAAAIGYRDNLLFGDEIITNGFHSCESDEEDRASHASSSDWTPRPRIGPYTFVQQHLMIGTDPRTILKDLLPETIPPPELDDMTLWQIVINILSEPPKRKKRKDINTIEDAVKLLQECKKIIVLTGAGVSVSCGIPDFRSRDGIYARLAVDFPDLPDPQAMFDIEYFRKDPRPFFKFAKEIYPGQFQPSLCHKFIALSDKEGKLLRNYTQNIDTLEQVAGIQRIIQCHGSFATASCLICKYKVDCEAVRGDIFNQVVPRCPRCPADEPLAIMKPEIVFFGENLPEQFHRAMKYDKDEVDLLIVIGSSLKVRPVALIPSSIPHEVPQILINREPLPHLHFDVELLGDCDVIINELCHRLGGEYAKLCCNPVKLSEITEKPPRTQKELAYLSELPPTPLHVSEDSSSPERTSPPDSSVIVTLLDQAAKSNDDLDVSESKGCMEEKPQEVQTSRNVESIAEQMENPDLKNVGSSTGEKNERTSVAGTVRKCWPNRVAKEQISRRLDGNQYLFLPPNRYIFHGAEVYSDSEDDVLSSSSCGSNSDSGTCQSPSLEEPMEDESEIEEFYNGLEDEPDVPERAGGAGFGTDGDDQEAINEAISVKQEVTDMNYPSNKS
Procedure: (§1) All assays were performed at room temperature in reaction buffer (50 mM HEPES, pH 7.5, 150 mM NaCl, 1 mM DTT, 0.05% BSA). […] To prepare the assays for analysis, 20 μL of reaction volume was mixed in 80 μL of 50:50 acetonitrile:methanol mixture. […] Peak data was integrated using RapidFire Integrator software (Agilent, Santa Clara, Calif.).

SIRT3 = target: T3, SIRT3 (Homo sapiens, UniProt Q9NTG7); experiment: SIRT3 deacetylation of Trp 5-mer peptide, OAADPr mass spec assay; conditions: Trp SIRT3_IC50, Trp 5-mer peptide; class symbols
T3 sequence (Q9NTG7 102-399): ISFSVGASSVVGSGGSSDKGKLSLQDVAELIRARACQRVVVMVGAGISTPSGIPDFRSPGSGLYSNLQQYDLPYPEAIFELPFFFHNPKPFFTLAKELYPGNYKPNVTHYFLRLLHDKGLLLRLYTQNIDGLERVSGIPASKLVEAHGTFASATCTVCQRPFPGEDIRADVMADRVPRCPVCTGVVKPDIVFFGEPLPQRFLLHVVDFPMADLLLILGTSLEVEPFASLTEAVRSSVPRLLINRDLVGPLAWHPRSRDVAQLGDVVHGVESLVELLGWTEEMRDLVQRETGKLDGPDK
Procedure: as §1

[1] = Trp 5-mer peptide and NAD at KM, mean of at least three determinations, read-out: IC50 (μM) SIRT2
[2] = Trp 5-mer peptide, class symbols, read-out: Trp SIRT2_IC50
[3] = Trp SIRT1_IC50, Trp 5-mer peptide, class symbols
[4] = read-out: IC50 (μM) SIRT1, Trp 5-mer peptide and NAD at KM, mean of at least three determinations
[5] = IC50 (μM) SIRT1, Trp 5-mer peptide and NAD at KM, mean of at least three determinations
[6] = Trp SIRT2_IC50, Trp 5-mer peptide, class symbols

| Compound | IC50 (SIRT2; [2]) | IC50 (SIRT1; [3]) | IC50 (SIRT3) | IC50 (SIRT1; [5]) | IC50 (SIRT2; [6]) | IC50 (SIRT2; IC50 (μM) SIRT2, Trp 5-mer peptide and NAD at KM, mean of at least three determinations) | IC50 (SIRT2; [1]) | IC50 (SIRT1; [4]) | SIRT2 inhibition, in words (SIRT2; at the concentrations tested) | SIRT1 inhibition, in words (SIRT1; at the concentrations tested) |
| --- | --- | --- | --- | --- | --- | --- | --- | --- | --- | --- |
| Cc1nc(N2CCC(CCNC(=O)C(C)(C)C)CC2)c2sc(C(N)=O)cc2n1 [Compound 159] | < 1 µM | < 1 µM | 1000 to 10000 nM |  |  |  |  |  |  |  |
| CS(=O)(=O)NCCC1CCN(c2ncnc3cc(C(N)=O)sc23)CC1 [Compound 31] | < 1 µM |  |  |  |  |  | 0.001 µM |  |  |  |
| COC(=O)c1ccc(C(=O)NCCC2CCN(c3ncnc4cc(C(N)=O)sc34)CC2)s1 [Compound 67] | < 1 µM | < 1 µM | < 1000 nM |  |  |  |  |  |  |  |
| NCC1CCN(c2ncnc3cc(C(N)=O)sc23)CC1 [Compound 59, 4-(4-(aminomethyl)piperidin-1-yl)thieno[3,2-d]pyrimidine-6-carboxamide] | > 10 µM | > 10 µM | > 10000 nM |  |  |  |  |  |  |  |
| CC(C)(C)C(=O)NCCC1CCN(c2ncnc3cc(C(=O)O)sc23)CC1 [Compound 40, 4-(4-(2-Pivalamidoethyl)piperidin-1-yl)thieno[3,2-d]pyrimidine-6-carboxylic acid 2,2,2-trifluoroacetate] | > 10 µM | > 10 µM |  |  |  |  |  |  | no measurable | no measurable |
| NC(=O)c1cc2ncnc(N3CCC(CCN4CCCC4)CC3)c2s1 [Compound 34] | < 1 µM | < 1 µM |  |  |  |  | 0.067 µM | 0.11 µM |  |  |
| NC(=O)c1cc2ncnc(N3CCC(CN4CCCC4)CC3)c2s1 [Compound 33] | < 1 µM | < 1 µM |  |  |  |  | 0.22 µM | 0.73 µM |  |  |
| CC(=S)NCCN1CCN(c2ncnc3cc(C(N)=O)sc23)CC1 [Compound 26] | < 1 µM | < 1 µM |  |  |  |  | 0.13 µM | 0.49 µM |  |  |
| CC(C)(C)C(=O)NCCCC1CCN(c2ncnc3cc(C(N)=O)sc23)CC1 [Compound 29, 4-(4-(3-pivalamidopropyl)piperidin-1-yl)thieno[3,2-d]pyrimidine-6-carboxamide] | < 1 µM | < 1 µM |  |  |  |  | 0.016 µM | 0.042 µM |  |  |
| CC(C)(C)OC(=O)NCCC1CCN(c2ncnc3cc(C(N)=O)sc23)CC1 [Compound 15a, tert-butyl (2-(1-(6-carbamoylthieno[3,2-d]pyrimidin-4-yl)piperidin-4-yl)ethyl)carbamate] | < 1 µM | < 1 µM |  |  |  |  | 0.005 µM | 0.017 µM |  |  |
| CC(C)(C)C(=O)NCC1CCN(c2ncnc3cc(C(N)=O)sc23)CC1 [Compound 27, 4-(4-(pivalamidomethyl)piperidin-1-yl)thieno[3,2-d]pyrimidine-6-carboxamide] | < 1 µM | 1 to 10 µM |  |  |  |  | 0.74 µM | 4.3 µM |  |  |
| Cc1c(C(N)=O)sc2c(N3CCC(CCNC(=O)C(C)(C)C)CC3)ncnc12 [Compound 39, 7-methyl-4-(4-(2-pivalamidoethyl)piperidin-1-yl)thieno[3,2-d]pyrimidine-6-carboxamide] | < 1 µM | < 1 µM |  |  |  |  | 0.13 µM | 0.18 µM |  |  |
| CC(C)(C)C(=O)NCCC1CCN(c2ncnc3cc(C(N)=O)oc23)CC1 [Compound 36, 4-(4-(2-pivalamidoethyl)piperidin-1-yl)furo[3,2-d]pyrimidine-6-carboxamide] | < 1 µM | < 1 µM |  |  |  |  | 0.15 µM | 0.47 µM |  |  |
| CC(=O)NCCC1CCN(c2ncnc3cc(C(N)=O)sc23)CC1 [Compound 20] | < 1 µM | < 1 µM |  |  |  |  | 0.023 µM | 0.11 µM |  |  |
| CC(C)(C)C(=O)NCCC1CCN(c2ccnc3cc(C(N)=O)sc23)CC1 [Compound 37, 7-(4-(2-pivalamidoethyl)piperidin-1-yl)thieno[3,2-b]pyridine-2-carboxamide] | < 1 µM | < 1 µM |  |  |  |  | 0.028 µM | 0.059 µM |  |  |
| NC(=O)c1cc2ncnc(N3CCN(CCN4CCCC4)CC3)c2s1 [Compound 35, 4-(4-(2-(Pyrrolidin-1-yl)ethyl)piperazin-1-yl)thieno[3,2-d]pyrimidine-6-carboxamide bis(2,2,2-trifluoroacetate)] | < 1 µM | < 1 µM |  |  |  |  | 0.029 µM | 0.053 µM |  |  |
| CC(C)(C)C(=O)NCCN1CCN(c2ncnc3cc(C(N)=O)sc23)CC1 [Compound 30, 4-(4-(2-pivalamidoethyl)piperazin-1-yl)thieno[3,2-d]pyrimidine-6-carboxamide] | < 1 µM | < 1 µM |  |  |  |  | 0.017 µM | 0.12 µM |  |  |
| CS(=O)(=O)NCCN1CCN(c2ncnc3cc(C(N)=O)sc23)CC1 [Compound 32, 4-(4-(2-(methylsulfonamido)ethyl)piperazin-1-yl)thieno[3,2-d]pyrimidine-6-carboxamide 2,2,2-trifluoroacetate] | < 1 µM | < 1 µM |  |  |  |  | 0.053 µM | 0.38 µM |  |  |
| NCCC1CCN(c2ncnc3cc(C(N)=O)sc23)CC1 [Compound 16a, 4-(4-(2-aminoethyl)piperidin-1-yl)thieno[3,2-d]pyrimidine-6-carboxamide] |  | 1 to 10 µM |  |  | < 1 µM |  | 0.11 µM | 1.6 µM |  |  |

Continued, in another order:

| IC50 (SIRT2; [2]) | IC50 (SIRT1; [3]) | IC50 (SIRT3) | IC50 (SIRT1; [5]) | IC50 (SIRT2; [6]) | IC50 (SIRT2; IC50 (μM) SIRT2, Trp 5-mer peptide and NAD at KM, mean of at least three determinations) | Compound | IC50 (SIRT2; [1]) | IC50 (SIRT1; [4]) | SIRT2 inhibition, in words (SIRT2; at the concentrations tested) | SIRT1 inhibition, in words (SIRT1; at the concentrations tested) |
| --- | --- | --- | --- | --- | --- | --- | --- | --- | --- | --- |
| < 1 µM | < 1 µM |  |  |  |  | NC(=O)c1cc2ncnc(N3CCC(CCNC(=O)c4ccc(C(=O)O)s4)CC3)c2s1 [Compound 18, 5-((2-(1-(6-carbamoylthieno[3,2-d]pyrimidin-4-yl)piperidin-4-yl)ethyl)carbamoyl)thiophene-2-carboxylic acid] | 0.004 µM | 0.014 µM |  |  |
| > 10 µM | > 10 µM | > 10000 nM |  |  |  | NCCC1CCN(c2nccc3cc(C(N)=O)sc23)CC1 [Compound 175, 7-(4-(2-aminoethyl)piperidin-1-yl)thieno[2,3-c]pyridine-2-carboxamide] |  |  |  |  |
| < 1 µM | 1 to 10 µM | < 1000 nM |  |  |  | NC(=O)c1cc2ncnc(N3CCC(CCN4CCCC4)CC3)c2o1 [Compound 87] |  |  |  |  |
| 1 to 10 µM |  | > 10000 nM |  |  |  | CC(C)(C)OC(=O)NCC1CCN(c2ncnc3cc(C(N)=O)sc23)CC1 [Compound 57, tert-butyl ((1-(6-carbamoylthieno[3,2-d]pyrimidin-4-yl)piperidin-4-yl)methyl)carbamate] |  |  |  |  |
| 1 to 10 µM | > 10 µM | 1000 to 10000 nM |  |  |  | Cc1nc(N2CCN(CCN)CC2)c2sc(C(N)=O)cc2n1 [Compound 153] |  |  |  |  |
| < 1 µM | < 1 µM | < 1000 nM |  |  |  | NC(=O)c1cc2ncnc(N3CCC(CCN4CCCC4=O)CC3)c2s1 [Compound 47] |  |  |  |  |
| < 1 µM | 1 to 10 µM |  |  |  |  | CC(=O)NCCN1CCN(c2ncnc3cc(C(N)=O)sc23)CC1 [Compound 24] | 0.17 µM | 1.6 µM |  |  |
| < 1 µM | < 1 µM |  | 0.006 µM |  |  | NC(=O)c1cc2ncnc(N3CCC(CCNC(=O)c4cccs4)CC3)c2s1 [Compound 19, 4-(4-(2-(thiophene-2-carboxamido)ethyl)piperidin-1-yl)thieno[3,2-d]pyrimidine-6-carboxamide] | 0.007 µM |  |  |  |
|  | < 1 µM |  | 0.007 µM | < 1 µM | 0.001 µM | CC(C)(C)OC(=O)c1ccc(C(=O)NCCC2CCN(c3ncnc4cc(C(N)=O)sc34)CC2)s1 [Compound 17, tert-butyl 5-((2-(1-(6-carbamoylthieno[3,2-d]pyrimidin-4-yl)piperidin-4-yl)ethyl)carbamoyl)thiophene-2-carboxylate] |  |  |  |  |
